Test results from patent US20230381157A1, “RIFABUTIN FOR THE TREATMENT OF ACINETOBACTER BAUMANNII” (University of Southern California, priority 2018, published 2023).
Converted amounts (≈) assume the structure as drawn. “And” between values parts separate entries of the source, which are not always exact repeats. Identical values can stand only once. “Also recorded” adds a separate entry of the source. Like-named read-outs stand apart in the source and are kept apart here.

How the values were obtained:
[1] = tested on: S. aureus LAC; experiment: microbe, parasite or virus in culture; type: cell-based; conditions: Staphylococcus aureus
[2] = tested on: A. baumannii HUMC1; type: in vivo, mouse
[3] = tested on: A. baumannii HUMC1; experiment: MIC, broth microdilution in MHII, RPMI or modified media; type: cell-based, Acinetobacter baumannii; conditions: for Rifabutin MIC: clinical isolate HUMC1
[4] = Murine neuropenic lung infection model; type: in vivo, mouse
[5] = tested on: A. baumannii HUMC1; experiment: Time kill assay in RPMI with or without amino acids; type: cell-based, Acinetobacter baumannii; conditions: RPMI alone vs RPMI with amino acids; 8 and 24 hrs
[6] = tested on: E. coli JJ1886; type: cell-based, Escherichia coli; conditions: TSA
[7] = tested on: A. baumannii LAC-4; type: in vivo, mouse; conditions: C3H mice, 10 mg/kg/daily or 1 mg/kg for 3 days, listed as RBT
[8] = tested on: A. baumannii HUMC1; experiment: IC50 dose response, inhibition of bacterial growth (BacTiter-Glo viability); type: cell-based, Acinetobacter baumannii; conditions: Acinetobacter baumannii, 11-point dose response
[9] = tested on: A. baumannii HUMC1; type: in vivo, mouse; conditions: for lung CFUs: lungs at 24 hrs post infection
[10] = tested on: Acinetobacter baumannii; experiment: Galleria mellonella infection model; type: in vivo
[11] = tested on: A. baumannii; type: cell-based, Acinetobacter baumannii
[12] = tested on: HepG2; conditions: top screen hits; IC50 against A. baumannii HUMC1 in 50% serum
[13] = 5 mg/kg/daily for 3 days, oral gavage
[14] = 5 mg/kg/daily for 3 days, oral gavage, listed as RBT

CO[C@H]1/C=C/O[C@@]2(C)Oc3c(C)c(O)c4c(c3C2=O)C2=NC3(CCN(CC(C)C)CC3)NC2=C(NC(=O)/C(C)=C\C=C\[C@H](C)[C@H](O)[C@@H](C)[C@@H](O)[C@@H](C)[C@H](OC(C)=O)[C@@H]1C)C4=O [rifabutin]
MIC ([1]; MHII): 0.012 µg/mL (≈ 0.0142 µM) | MIC ([1]; RPMI): 0.025 µg/mL (≈ 0.0295 µM) | survival ([2]; IV infection, 10 mg/kg/day for 3 days, oral gavage, 10 mg/kg/day): improved survival | CFUs in blood ([2]; IV infection, 10 mg/kg/day for 3 days, oral gavage, at 1 hr): significantly lower CFUs in the blood | CFUs in blood ([2]; IV infection, 10 mg/kg/day for 3 days, oral gavage, at 24 hrs, 10 mg/kg/day): significantly lower CFUs in the lung | CFUs in blood ([2]; IV infection, 10 mg/kg/day for 3 days, oral gavage, at 24 hrs, listed as RBT, 10 mg/kg/day): significantly lower CFUs in the blood; also recorded: significantly reduced CFUs | survival ([2]; IV infection, 10 mg/kg/day for 3 days, oral gavage, listed as RBT, 10 mg/kg/day): significant improvement in survival; also recorded: significantly improved survival | fully protective at fold lower dose than RIF ([2]; IV infection, RBT 0.1 or 0.3, RIF 10 or 30 mg/kg/daily for 3 days, printed 100X / 100×): 100 | survival ([2]; bacteremia model, 10 mg/kg for 3 days, 2 days post infection, PBS/control 0%): about 100% | protection ([2]; murine bacteremia, 0.1 mg/kg): fully protective | MIC ([3]; Acinetobacter baumannii, HUMC1, HUMC1, 5 × RPMI): < 0.0625 µg/mL | MIC ([3]; Acinetobacter baumannii, HUMC1, HUMC1, 10-30 kDa MHII Fraction spiked into RPMI): 8 µg/mL (≈ 9.44 µM) | MIC ([3]; Acinetobacter baumannii, HUMC1, HUMC1, 25° C., MHII): 4 µg/mL (≈ 4.72 µM) | MIC ([3]; Acinetobacter baumannii, HUMC1, HUMC1, 25° C., RPMI): < 0.06 µg/mL | MIC ([3]; Acinetobacter baumannii, HUMC1, HUMC1, <10 kDa MHII Fraction spiked into RPMI): 8 µg/mL (≈ 9.44 µM) | MIC ([3]; Acinetobacter baumannii, HUMC1, HUMC1, Low Salt Luria Broth): 2 µg/mL | MIC ([3]; Acinetobacter baumannii, HUMC1, HUMC1, Luria Broth): 1 µg/mL (≈ 1.18 µM) | MIC ([3]; Acinetobacter baumannii, HUMC1, HUMC1, M9): < 0.05 µg/mL | MIC ([3]; Acinetobacter baumannii, HUMC1, HUMC1, MHII (CAMHB)): 4 µg/mL (≈ 4.72 µM) | MIC ([3]; Acinetobacter baumannii, HUMC1, HUMC1, MHII + 200 mg/L glucose): 2 µg/mL | MIC ([3]; Acinetobacter baumannii, HUMC1, HUMC1, MHII + 2,000 mg/L glucose): 2 µg/mL | MIC ([3]; Acinetobacter baumannii, HUMC1, HUMC1, MHII + Non-Essential Amino Acid Solution (100×)): 3.12 µg/mL | MIC ([3]; Acinetobacter baumannii, HUMC1, HUMC1, No Salt Luria Broth): 1 µg/mL | MIC ([3]; Acinetobacter baumannii, HUMC1, HUMC1, Non tissue culture treated 96-well plates): 1.56 µg/mL (≈ 1.84 µM) | MIC ([3]; Acinetobacter baumannii, HUMC1, HUMC1, RPMI + CCCP (2 μg/mL) + Essential Amino Acids): 1.56 µg/mL | MIC ([3]; Acinetobacter baumannii, HUMC1, HUMC1, RPMI + Essential Amino Acid Solution (50×)): 1.56 µg/mL | MIC ([3]; Acinetobacter baumannii, HUMC1, HUMC1, RPMI + Glutamic Acid 0.5 mM): < 0.048 µg/mL | MIC ([3]; Acinetobacter baumannii, HUMC1, HUMC1, RPMI + Glycine 0.5 mM): < 0.048 µg/mL | MIC ([3]; Acinetobacter baumannii, HUMC1, HUMC1, RPMI + L-Arginine 0.5 mM): < 0.048 µg/mL | MIC ([3]; Acinetobacter baumannii, HUMC1, HUMC1, RPMI + L-Histidine 0.5 mM): 1.56 µg/mL | MIC ([3]; Acinetobacter baumannii, HUMC1, HUMC1, RPMI + L-Tryptophan 0.125 mM): 1.56 µg/mL | MIC ([3]; Acinetobacter baumannii, HUMC1, HUMC1, RPMI + Leucine 1 mM): < 0.048 µg/mL | MIC ([3]; Acinetobacter baumannii, HUMC1, HUMC1, RPMI + Non-Essential Amino Acid Solution (100×)): 0.781 µg/mL | MIC ([3]; Acinetobacter baumannii, HUMC1, HUMC1, RPMI + Organic Layer, Proteinase K Digested): 4 µg/mL | MIC ([3]; Acinetobacter baumannii, HUMC1, HUMC1, RPMI + Organic layer, Sodium Periodate Treated): 4 µg/mL | MIC ([3]; Acinetobacter baumannii, HUMC1, HUMC1, RPMI + acetonitrile treated <10 kDa MHII fraction, Aqueous Layer): < 0.0312 µg/mL | MIC ([3]; Acinetobacter baumannii, HUMC1, HUMC1, RPMI + acetonitrile treated <10 kDa MHII fraction, Organic Layer): 4 µg/mL | MIC ([3]; Acinetobacter baumannii, HUMC1, HUMC1, RPMI + efflux pump inhibitor CCCP (2 μg/mL)): < 0.05 µg/mL | MIC ([3]; Acinetobacter baumannii, HUMC1, HUMC1, RPMI + efflux pump inhibitor thioridazine (16 μg/mL)): 12.5 µg/mL | MIC ([3]; Acinetobacter baumannii, HUMC1, HUMC1, RPMI Supplemented with MHII (hybrid media, equal parts)): 8 µg/mL (≈ 9.44 µM) | MIC ([3]; Acinetobacter baumannii, HUMC1, HUMC1, Tissue culture treated 96-well plates): 1.56 µg/mL (≈ 1.84 µM) | MIC ([3]; HUMC1, 5 × RPMI, listed as RBT): 0.06 µg/mL (≈ 0.0708 µM) | MIC ([3]; HUMC1, 10-30 kDa MHII Fraction spiked into RPMI, listed as RBT): 8.00 µg/mL (≈ 9.44 µM) | difference in MICs at lower temperature ([3]; HUMC1, 25° C. or 30° C. compared to 37° C., MHII or RPMI): did not observe any difference | MIC ([3]; HUMC1, 25° C., MHII, listed as RBT): 4.00 µg/mL (≈ 4.72 µM) | MIC ([3]; HUMC1, 25° C., RPMI, listed as RBT): 0.05 µg/mL (≈ 0.059 µM) | MIC ([3]; HUMC1, <10 kDa MHII Fraction spiked into RPMI, listed as RBT): 8 µg/mL and 8.00 µg/mL | effect of added iron on MIC ([3]; HUMC1, FeCl3 spiked into RPMI at 0.01, 0.10, and 0.30 μg/mL): did not have any effect | MIC ([3]; HUMC1, MHII (CAMHB in b45)): 3.125 µg/mL (≈ 3.69 µM) | MIC ([3]; HUMC1, MHII (CAMHB in b45), listed as Rifabutin): 3.125 µg/mL and 6.25 µg/mL | MIC ([3]; HUMC1, MHII (CAMHB), listed as RBT): 4.00 µg/mL and 6.25 µg/mL | MIC ([3]; HUMC1, RPMI): 0.0156 µg/mL (≈ 0.0184 µM) | MIC ([3]; HUMC1, RPMI + Glutamic Acid 0.5 mM, listed as RBT): 0.05 µg/mL | MIC ([3]; HUMC1, RPMI + Glycine 0.5 mM, listed as RBT): 0.05 µg/mL | MIC ([3]; HUMC1, RPMI + L-Arginine 0.5 mM, listed as RBT): 0.05 µg/mL | MIC ([3]; HUMC1, RPMI + Leucine 1 mM, listed as RBT): 0.05 µg/mL | MIC ([3]; HUMC1, RPMI + Non-Essential Amino Acid Solution (100×), listed as RBT): 0.78 µg/mL | MIC ([3]; HUMC1, RPMI + Organic Layer, Proteinase K Digested, listed as RBT): 4.00 µg/mL | MIC ([3]; HUMC1, RPMI + Organic layer, Sodium Periodate Treated, listed as RBT): 4.00 µg/mL | MIC ([3]; HUMC1, RPMI + acetonitrile treated <10 kDa MHII fraction, Aqueous Layer, listed as RBT): 0.03 µg/mL | MIC ([3]; HUMC1, RPMI + acetonitrile treated <10 kDa MHII fraction, Organic Layer, listed as RBT): 4.00 µg/mL | MIC ([3]; HUMC1, RPMI + efflux pump inhibitor CCCP (2 μg/mL), listed as RBT): 0.05 µg/mL | MIC ([3]; HUMC1, RPMI Supplemented with MHII (hybrid media, equal parts)): 8 µg/mL (≈ 9.44 µM) | MIC ([3]; HUMC1, RPMI Supplemented with MHII (hybrid media, equal parts), listed as RBT): 8.00 µg/mL (≈ 9.44 µM) | fold lower MIC of RBT as compared to RIF ([3]; HUMC1, RPMI, listed as RBT): 133 fold and 200 fold | Rifabutin MIC ([3]; MHII): 3.12 µg/mL | Rifabutin MIC ([3]; RPMI): 0.0156 µg/mL | efficacy vs RIF [4]: more effective as compared to RIF | reduction in CFUs (time kill) [5]: greater reduction in CFUs | Mutation Frequency [6]: 3.89E−08 | efficacy RBT vs RIF [7]: no difference in efficacy | IC50 ([8]; HUMC1, 24 h, HUMC1, RPMI + 50% Serum): < 0.847 nM | IC50 ([8]; HUMC1, HUMC1, RPMI + 50% Serum): < 0.847 nM | IC50 ([8]; HUMC1, HUMC1, RPMI): 1 nM | survival ([9]; 5 mg/kg for 3 days, […]): about 80% | survival [9, 13]: significantly improved | survival [9, 14]: significantly improved survival | lung CFUs [9, 13]: significantly lower CFUs in the lung | lung CFUs [9, 14]: significantly reduced lung CFUs; also recorded: significantly lower CFUs in the lung | survival ([9]; 10 mg/kg/day for 3 days, oral gavage, listed as RBT): modest improvement in survival; also recorded: modest survival benefit | reduction in the median CFUs in the blood as compared to RIF-treated mice ([9]; 10 mg/kg/day for 3 days, at 24 hours): 7 log | CFUs in blood (vs RIF) ([9]; C3H mice, 10 mg/kg/daily for 3 days, oral gavage, blood at 24 hrs): significant reduction in CFUs | improvement of survival rates ([9]; murine pneumonia, 5 mg/kg): over 70% | bacterial burden ([9]; murine pneumonia, 5 mg/kg, day 7 post-infection): about 2 Log10(CFU/mg lung) | protection, multiple doses ([10]; G. mellonella infection model): protective at significantly lower doses as compared to RIF | lowest efficacious dose (efficacious at doses as low as) ([10]; Galleria mellonella, dose-response): 0.1 mg/kg | Mutation Frequency ([11]; A. baumannii ABNIH1, MHII): 8.85E−09 | Mutation Frequency ([11]; A. baumannii ABNIH1, TSA): 5.95E−09 | Mutation Frequency ([11]; A. baumannii ATCC17978, MHII): 5.72E−09 | Mutation Frequency ([11]; A. baumannii ATCC17978, TSA): 8.49E−10 | Mutation Frequency ([11]; A. baumannii HUMC1, MHII): 2.20E−09 | Mutation Frequency ([11]; A. baumannii HUMC1, TSA): 1.28E−08 | Mutation Frequency ([11]; A. baumannii LAC-4, MHII): 1.29E−08 | Mutation Frequency ([11]; A. baumannii LAC-4, TSA): 7.41E−09 | Specificity HepG2 (CC50/IC50) [12]: 148.31
